The text below walks through data of US20180036314A1, “METHODS AND COMPOSITIONS FOR TREATING PERIPHERAL VASCULAR DISEASE” (Exodos Life Sciences Limited Partnership, priority 2009, published 2018).

The test system of series [1] is pig skin. The series can be described thus: Local cutaneous blood flow in pigs after topical application (laser Doppler). It counts as in vivo. The following applies: for Local cutaneous blood flow, FLOW (MV), 10 min. after treatment / Local cutaneous blood flow, FLOW (MV), 20 min. after treatment / Local cutaneous blood flow, FLOW (MV), 30 min. after treatment / Local cutaneous blood flow, FLOW (MV), 60 min. after treatment / Local cutaneous blood flow, FLOW (MV), 120 min after treatment / Local cutaneous blood flow, FLOW (MV), 180 min. after treatment: topical. The procedure: A stable depth of sedation was maintained with continuous intravenous methohexital, titrated to a minimal lid reflex and a regular respiratory rate. Throughout the experiment, the animals spontaneously breathed through a “snout-cone” connected to a standard anesthesia machine delivering 100% oxygen. The dorsal surface of the animal was cleaned with tepid water. Ten sites (2×2 cm each) were defined on the dorsal surface of the animal with permanent marker. […] MAP was recorded at the start and end of each Doppler scan. A dose volume of 0.1 mL of vehicle, control, or test article was applied to each site. L-arginine monohydrate and sildenafil citrate were prepared in commercially available Veecogel Cream base formulation (available from PCCA, 9901 South […], Houston, Tex., USA) containing […], Coconut oil, Capryloic Acid, […], Squalane, Boric Acid, Polysorbate 80, Sorbitan Monooleate 80, Simethicone, Butylated hydroxytoluene. Sildenafil citrate 1% was dissolved in propylene glycol 2% and combine with base with constant mixing. L-arginine monohydrate 10% and 1% were dissolved in 2% propylene glycol and combined with the Veecogel described above. No two adjacent sites were administered the same concentration of any control or test article and administration was temporally spaced to allow at least 2 minutes between dosing each site. […] Applications were made in the same order and over the same time span as the baseline blood flow measurements. […] Blood flow at the untreated, control site was measured immediately prior to and immediately after the measurements at the treated sites. These two measurements were averaged to obtain the control blood flow for each interval. Serum levels of local drugs were not measured. Regional differences in blood flow were accounted for by normalizing the measurements of flow made after injection of a test solution to the baseline flow at the site prior to application. Changes in blood flow are expressed as a percent change from control blood flow. Variations in skin blood flow over the course of the experiment were accounted for by normalizing the changes in blood flow at a given site to the changes in blood flow at a control site. Thus, the change in cutaneous blood flow at a treatment site can be determined by the formula: [formula] where Sx is the blood flow at an injected site X min after application, So is the baseline flow at that site prior to application, Cx is the flow at the control site X min after the application, and Co is the blood flow at the control site at the same time that the baseline flow measurements were made.

In series [2] the test system is hands of normal human volunteers. The series can be described thus: Skin temperature recovery of the hand after cold water immersion (infrared camera). The following applies: topical, acclimation at 25° C. It counts as in vivo. The procedure: The effects of L-arginine and sidelnafil citrate in the regulation of human blood flow was determined by measuring the rate of skin temperature recovery in the hands of normal human volunteers following a period of cold water immersion. The measurements were performed at room temperature 25° C., for a period of 30 minutes after acclimatization. L-arginine monohydrate and sildenafile citrate were prepared in commercially available Veecogel Cream base formulation containing Krisgel 100™, Coconut oil, Capryloic Acid, Triglicerides, Squalane, Boric Acid, Polysorbate 80, Sorbitan Monooleate 80, Simethicone, Butylated hydroxytoluene. Sildenafil citrate 1% was dissolved in propylene glycol 2% and combine with base with constant mixing. L-arginine monohydrate 10% and 1% were dissolve in 2% propylene glycol and combine with the Veecogel described above.
Skin temperature was measured with an infrared camera FLIR T300 (FLIR Systems, Inc., Boston, Mass., USA). Changes in skin temperature were determined after cooling of hand for 2 minutes in ice water by analyzing individual thermal images with FLIR Quick Report software. The effects of test drugs were determined following application of substance to the cooled hand. Thermal images of a patient receiving the control treatment and of a patient receiving the combination treatment were taken at 0, 5, and 15 minutes after treatment, and are shown in FIGS. 1A and 1B, respectively.

Series [3] concerns patients with secondary Raynaud's phenomenon. The following applies: oral 50 mg twice daily for 4 weeks, cited from earlier work.
Series [4] has as its system patients with Raynaud's phenomenon. The following applies: cited from earlier work.
Series [5] concerns patients with Raynaud's phenomenon secondary to scleroderma. To be noted: in vivo; cited from earlier work.
The test system of series [6] is primary Raynaud's symptoms. The following applies: in vivo; cited from earlier work.
For series [7], the system named is patient suffering from Raynaud's phenomenon secondary to chemotherapy. To be noted: single patient; equipotent doses; cited from earlier work.
For series [8] the following is noted: in vivo; cited from earlier work.
For series [9], the system named is patients with scleroderma and lupus. To be noted: in vivo; cited from earlier work.
In series [10] the test system is vasospastic attacks and peripheral blood flow. To be noted: oral 20 mg 2 or 3 times per week during 4 weeks; compared to pentoxifylline 600 mg b.i.d.; cited from earlier work.

With `N=C(N)NCCC[C@H](N)C(=O)O` [Arginine, L-arginine], the “Effect on dermal blood flow” value in series [1] (topical application) was “increased dermal blood flow in a dose and time dependent manner”. In addition, in [1] (dose 1%), the “Local cutaneous blood flow, FLOW (MV), 10 min. after treatment” value was 0.41 MV; the “Local cutaneous blood flow, FLOW (MV), 20 min. after treatment” value is 12.47 MV; the “Local cutaneous blood flow, FLOW (MV), 30 min. after treatment” value is recorded as 5.55 MV; the “Local cutaneous blood flow, FLOW (MV), 60 min. after treatment” value was found to be 2.71 MV. In series [1] (dose 1%), the “Local cutaneous blood flow, FLOW (MV), 120 min after treatment” value was determined as 7.91 MV and the “Local cutaneous blood flow, FLOW (MV), 180 min. after treatment” value is listed as 10.26 MV. In addition, in series [1] (dose 10%), the “Local cutaneous blood flow, FLOW (MV), 10 min. after treatment” value amounted to 19.82 MV; the “Local cutaneous blood flow, FLOW (MV), 20 min. after treatment” value was 21.88 MV; the “Local cutaneous blood flow, FLOW (MV), 30 min. after treatment” value is on record as 22.07 MV; the “Local cutaneous blood flow, FLOW (MV), 60 min. after treatment” value worked out at 38.45 MV. Also, in [1] (dose 10%), the “Local cutaneous blood flow, FLOW (MV), 120 min after treatment” value was 40.21 MV and the “Local cutaneous blood flow, FLOW (MV), 180 min. after treatment” value turned out to be 38.72 MV. In addition, in [2] (dose 10% W/v), the “Change in skin temperature from baseline, 1 min.” value stood at 2.5 °C; the “Change in skin temperature from baseline, 2 min.” value was 4 °C; the “Change in skin temperature from baseline, 5 min.” value was 5 °C; the “Change in skin temperature from baseline, 10 min.” value was found to be 9.5 °C. Further, the “Change in skin temperature from baseline, 15 min.” value in series [2] (dose 10% W/v) worked out at 11.5 °C.

As to `CCCc1nn(C)c2c(=O)[nH]c(-c3cc(S(=O)(=O)N4CCN(C)CC4)ccc3OCC)nc12` [Sildenafil, 5-[2-ethoxy-5-(4-methyl-1-piperazinylsulphonyl)phenyl]-1-methyl-3-n-propyl-1,6-dihydro-7H-pyrazolo[4,3-d]pyrimidin-7-one], the “Effect on blood flow” value in series [1] (topical concentration of 1% in Veecogel cream base) is on record as “increased blood flow in the areas of application”. Further, in [1] (dose 1%), the “Local cutaneous blood flow, FLOW (MV), 10 min. after treatment” value is listed as −10.31 MV; the “Local cutaneous blood flow, FLOW (MV), 20 min. after treatment” value was −3.51 MV; the “Local cutaneous blood flow, FLOW (MV), 30 min. after treatment” value is −1.57 MV; the “Local cutaneous blood flow, FLOW (MV), 60 min. after treatment” value was found to be 1.58 MV. Further, in series [1] (dose 1%), the “Local cutaneous blood flow, FLOW (MV), 120 min after treatment” value came out at 3.15 MV and the “Local cutaneous blood flow, FLOW (MV), 180 min. after treatment” value was found to be 15.73 MV. For the same molecule, in series [2] (dose 1% W/v), the “Change in skin temperature from baseline, 1 min.” value is 1 °C; the “Change in skin temperature from baseline, 2 min.” value amounted to 4 °C; the “Change in skin temperature from baseline, 5 min.” value is 6.5 °C; the “Change in skin temperature from baseline, 10 min.” value came to 8.5 °C. The “Change in skin temperature from baseline, 15 min.” value in series [2] (dose 1% W/v) came to 12.5 °C. In series [3], the “Digital ulcers in patients who had digital ulcers at baseline” value is recorded as “ulcer healing was observed” and the “Increase in mean capillary flow velocity” value is “more than 4 fold”. Moreover, the “Frequency and duration of Raynaud's attacks” value in [3] (compared to placebo) was “reduction in the frequency and duration of Raynaud's attacks compared to placebo”. In series [4] (oral, after treatment), the “Increase in forearm blood flow” value is 75%. In addition, in series [5], the “Patients with a reduction in pain and frequency of Raynaud's phenomenon attacks” value is 80%; the “Patients with digital ulcer healing (of those with digital ulcers at baseline)” value is recorded as 75%. In addition, in [6], the “Primary Raynaud's symptoms” value is “failed to improve primary Raynaud's symptoms”. For the same molecule, the “Response of Raynaud's symptoms and capillary blood flow” value in series [7] is on record as “did not respond”. Besides, the Half-life in series [8] is reported as 3.8 h.

For `CN1CC(=O)N2[C@H](c3ccc4c(c3)OCO4)c3[nH]c4ccccc4c3C[C@@H]2C1=O` [tadalafil, (6R,12aR)-2,3,6,7,12,12a-hexahydro-2-methyl-6-(3,4-methylenedioxyphenyl)-pyrazino[2′,1′:6,1]pyrido[3,4-b]indole-1,4-dione], in series [9], the “Raynaud's symptoms” value is listed as “reduced Raynaud's symptoms”. Further, in series [10], the “Peripheral blood flow at the end of the treatment period” value was “increased peripheral blood flow”; the “Vasospastic attack frequency and duration” value is “significant reduction in vasospastic attack frequency and duration”. Besides, in series [7], the “Response of Raynaud's symptoms and capillary blood flow” value was “improved Raynaud's symptoms and increased capillary blood flow”.

Consider `Cc1c(C)c2c(c(C)c1O)CC[C@@](C)(CCC[C@H](C)CCC[C@H](C)CCCC(C)C)O2` [α-tocopherol], for which the “Effects on blood flow parameters” value in series [4] (comparator arm) is reported as “no effects on blood flow parameters”.
